Laboratory results: the supplement of paper PMC10307832

Key:
Assay in all cases: relative viability (nuclei count vs DMSO), 5 days (fraction); higher = more cells survive
Everolimus + Lapatinib = compound: CO[C@H]1C[C@@H]2CC[C@@H](C)[C@@](O)(O2)C(=O)C(=O)N2CCCC[C@H]2C(=O)O[C@H]([C@H](C)C[C@@H]2CC[C@@H](OCCO)[C@H](OC)C2)CC(=O)[C@H](C)/C=C(\C)[C@@H](O)[C@@H](OC)C(=O)[C@H](C)C[C@H](C)/C=C/C=C/C=C/1C [Everolimus] + CS(=O)(=O)CCNCc1ccc(-c2ccc3ncnc(Nc4ccc(OCc5cccc(F)c5)c(Cl)c4)c3c2)o1 [Lapatinib] (partner 2 µM)
Procedure, shortened: (§1)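 Lung cancer cell lines in 1536-well plates were dosed by pin tool the day after seeding, either with one drug alone or with a fixed anchor-drug dose plus five library-drug doses (not always all listed) in √10 steps. After 5 days, cells were fixed and their nuclei stained in one step (final 0.05% Triton X-100, 1% formaldehyde, 1 ug/ml Hoechst), then counted on 4× images. Relative viability is the nuclei count in treated wells divided by that in vehicle wells. Values are medians of duplicate plates.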

Everolimus + Crizotinib = compound: CO[C@H]1C[C@@H]2CC[C@@H](C)[C@@](O)(O2)C(=O)C(=O)N2CCCC[C@H]2C(=O)O[C@H]([C@H](C)C[C@@H]2CC[C@@H](OCCO)[C@H](OC)C2)CC(=O)[C@H](C)/C=C(\C)[C@@H](O)[C@@H](OC)C(=O)[C@H](C)C[C@H](C)/C=C/C=C/C=C/1C [Everolimus] + C[C@@H](Oc1cc(-c2cnn(C3CCNCC3)c2)cnc1N)c1c(Cl)ccc(F)c1Cl [Crizotinib] (partner 1 µM)
Procedure, shortened: as §1

Everolimus + Dasatinib = compound: CO[C@H]1C[C@@H]2CC[C@@H](C)[C@@](O)(O2)C(=O)C(=O)N2CCCC[C@H]2C(=O)O[C@H]([C@H](C)C[C@@H]2CC[C@@H](OCCO)[C@H](OC)C2)CC(=O)[C@H](C)/C=C(\C)[C@@H](O)[C@@H](OC)C(=O)[C@H](C)C[C@H](C)/C=C/C=C/C=C/1C [Everolimus] + Cc1nc(Nc2ncc(C(=O)Nc3c(C)cccc3Cl)s2)cc(N2CCN(CCO)CC2)n1 [Dasatinib] (partner 0.075 µM)
Procedure, shortened: as §1

Everolimus + Pemetrexed = compound: CO[C@H]1C[C@@H]2CC[C@@H](C)[C@@](O)(O2)C(=O)C(=O)N2CCCC[C@H]2C(=O)O[C@H]([C@H](C)C[C@@H]2CC[C@@H](OCCO)[C@H](OC)C2)CC(=O)[C@H](C)/C=C(\C)[C@@H](O)[C@@H](OC)C(=O)[C@H](C)C[C@H](C)/C=C/C=C/C=C/1C [Everolimus] + Nc1nc2[nH]cc(CCc3ccc(C(=O)N[C@@H](CCC(=O)O)C(=O)O)cc3)c2c(=O)[nH]1 [Pemetrexed] (partner 0.2 µM)
Procedure, shortened: as §1

| Cell Line | relative viability (Everolimus + Lapatinib; first compound 0.01 µM) | relative viability (Everolimus + Lapatinib; first compound 0.03162 µM) | relative viability (Everolimus + Lapatinib; first compound 0.1 µM) | relative viability (Everolimus + Lapatinib; first compound 0.3162 µM) | relative viability (Everolimus + Lapatinib; first compound 1 µM) | relative viability (Everolimus + Crizotinib; first compound 0.01 µM) | relative viability (Everolimus + Crizotinib; first compound 0.03162 µM) | relative viability (Everolimus + Crizotinib; first compound 0.1 µM) | relative viability (Everolimus + Crizotinib; first compound 0.3162 µM) | relative viability (Everolimus + Crizotinib; first compound 1 µM) | relative viability (Everolimus + Dasatinib; first compound 0.01 µM) | relative viability (Everolimus + Dasatinib; first compound 0.03162 µM) | relative viability (Everolimus + Dasatinib; first compound 0.1 µM) | relative viability (Everolimus + Dasatinib; first compound 0.3162 µM) | relative viability (Everolimus + Dasatinib; first compound 1 µM) | relative viability (Everolimus + Pemetrexed; first compound 0.01 µM) | relative viability (Everolimus + Pemetrexed; first compound 0.03162 µM) | relative viability (Everolimus + Pemetrexed; first compound 0.1 µM) | relative viability (Everolimus + Pemetrexed; first compound 0.3162 µM) | relative viability (Everolimus + Pemetrexed; first compound 1 µM) |
| --- | --- | --- | --- | --- | --- | --- | --- | --- | --- | --- | --- | --- | --- | --- | --- | --- | --- | --- | --- | --- |
| NCI-H1944 | 0.633 | 0.669 | 0.617 | 0.604 | 0.541 | 0.82 | 0.878 | 0.751 | 0.827 | 0.697 | 0.179 | 0.193 | 0.157 | 0.184 | 0.157 | 0.497 | 0.545 | 0.393 | 0.489 | 0.404 |
| SW 1573 | 0.649 | 0.705 | 0.627 | 0.686 | 0.572 | 0.593 | 0.521 | 0.53 | 0.383 | 0.427 | 0.259 | 0.353 | 0.207 | 0.244 | 0.215 | 0.594 | 0.592 | 0.543 | 0.562 | 0.496 |
| LU99A | 0.621 | 0.548 | 0.573 | 0.52 | 0.55 | 0.415 | 0.413 | 0.35 | 0.451 | 0.351 | 0.452 | 0.499 | 0.439 | 0.284 | 0.35 | 0.206 | 0.24 | 0.248 | 0.189 | 0.254 |
| NCI-H647 | 0.583 | 0.562 | 0.505 | 0.536 | 0.87 | 0.582 | 0.771 | 0.596 | 0.582 | 0.709 | 0.15 | 0.198 | 0.184 | 0.145 | 0.157 | 0.175 | 0.184 | 0.156 | 0.11 | 0.175 |
| A-427 | 0.811 | 0.902 | 0.645 | 0.768 | 0.85 | 0.776 | 0.768 | 0.745 | 0.704 | 0.675 | 0.527 | 0.526 | 0.397 | 0.462 | 0.489 | 0.757 | 0.856 | 0.799 | 0.788 | 0.891 |
| COR-L 105 | 0.351 | 0.288 | 0.316 | 0.38 | 0.262 | 0.549 | 0.642 | 0.469 | 0.544 | 0.49 | 0.25 | 0.262 | 0.211 | 0.253 | 0.233 | 0.9 | 0.806 | 0.75 | 0.792 | 0.716 |
| NCI-H2126 | 0.458 | 0.485 | 0.426 | 0.472 | 0.501 | 0.755 | 0.736 | 0.671 | 0.721 | 0.665 | 0.422 | 0.423 | 0.35 | 0.467 | 0.373 | 0.531 | 0.522 | 0.497 | 0.561 | 0.535 |
| NCI-H460 | 0.912 | 0.919 | 0.805 | 0.866 | 0.84 | 0.783 | 0.738 | 0.808 | 0.845 | 0.872 | 0.38 | 0.38 | 0.323 | 0.203 | 0.298 | 0.058 | 0.0669 | 0.0635 | 0.0608 | 0.072 |
| SK-LU-1 | 0.638 | 0.624 | 0.576 | 0.49 | 0.61 | 0.478 | 0.511 | 0.572 | 0.544 | 0.626 | 0.16 | 0.166 | 0.177 | 0.176 | 0.188 | 0.607 | 0.683 | 0.688 | 0.74 | 0.681 |
| NCI-H322M | 0.547 | 0.545 | 0.601 | 0.526 | 0.508 | 0.914 | 0.753 | 0.775 | 0.795 | 0.704 | 0.243 | 0.245 | 0.245 | 0.243 | 0.244 | 0.597 | 0.598 | 0.554 | 0.597 | 0.618 |
| EKVX | 0.158 | 0.161 | 0.159 | 0.171 | 0.161 | 0.718 | 0.656 | 0.684 | 0.721 | 0.75 | 0.539 | 0.435 | 0.419 | 0.366 | 0.287 |  | 0.378 | 0.371 | 0.345 | 0.389 |
| NCI-H1734 | 0.715 | 0.582 | 0.582 | 0.551 | 0.73 | 0.501 | 0.48 | 0.401 | 0.378 | 0.449 | 0.276 | 0.301 | 0.265 | 0.266 | 0.316 | 0.407 | 0.435 | 0.461 | 0.385 | 0.406 |
| NCI-H520 | 0.379 | 0.39 | 0.313 | 0.285 | 0.405 | 0.478 | 0.398 | 0.426 | 0.354 | 0.353 | 0.118 | 0.143 | 0.176 | 0.144 | 0.176 | 0.349 | 0.318 | 0.324 | 0.255 | 0.325 |
| EPLC-272H | 0.615 | 0.73 | 0.543 | 0.605 | 0.587 | 0.68 | 0.573 | 0.542 | 0.512 | 0.601 | 0.235 | 0.266 | 0.213 | 0.227 | 0.276 | 0.343 | 0.317 | 0.397 | 0.313 | 0.315 |
